biological target: T1, H+/K+-ATPase (Sus scrofa, UniProt P19156); assay: Proton pump inhibitory action: activity of inhibiting H+/K+-ATPase (at pH 1); assay type: biochemical; conditions: pig gastric mucosa enzyme sample; test compounds pretreated in hydrochloric acid solution pH 1 (50% DMSO) for 15 minutes; read-out: Proton pump inhibitory action [IC50 (μmol/L)]
T1 construct: The mucous membrane layer was homogenized in Tris-HCl buffer; from tissue; host or cells: pig stomach body, mucous membrane layer, membrane fraction from a sucrose interface
Text: (Proton Pump Inhibitory Action)
(1) Preparation of Enzyme Sample (H^+/K^+-ATPase)
The stomach body removed from a pig, which had been stored in a frozen state, was separated into a muscle layer and a mucous membrane layer. The mucous membrane layer was homogenized in Tris-HCl buffer (20 mmol/L, pH 7.4) having a volume 5 times that of the layer and containing sucrose (0.25 mol/L) and EGTA (1 mmol/L) (hereinafter the mixture is referred to as Tris-HCl buffer) in a mixer. The homogenate was subjected to centrifugation (9,000×g, 30 minutes). The supernatant was softly placed on 8 mL Tris-HCl buffer (20 mmol/L, pH 7.4) containing 30% sucrose and 1 mmol/L EGTA. The mixture was subjected to ultracentrifugation at 100,000×g for 60 minutes. The interface fraction obtained through centrifugation was subjected to centrifugation (113,000×g, 60 minutes) twice. Pellet was suspended in Tris-HCl buffer, and the suspension was homogenized at low speed. The resultant homogenate served as an enzyme sample of interest and was stored at −80° C. The protein content of the sample was quantitated through use of a BCA protein assay reagent in accordance with a method described by Smith et al. (Anal. Biochem., 150, 76-85 (1985)). All these steps were performed under cooling with an ice bath.
(2) Activity of inhibiting H^+/K^+-ATPase (at pH 1)
Activity of inhibiting H^+/K^+-ATPase was measured in accordance with a method described in Biochem. Biophys. Res. Commun., 40, 880-886 (1970). Specifically, ATP was employed as a substrate, and inorganic phosphate, which is a resultant degradation product, was quantitated. In consideration of the solubility of test compounds, the test compounds were preliminarily treated with a hydrochloric acid solution (containing 50% DMSO, 1×10^−1 mol/L, pH 1). Each of the test compounds having different concentrations was added to the hydrochloric acid solution to thereby yield a 1,000—fold dilution, and thereafter, the diluted compound was allowed to stand for 15 minutes at room temperature. After these preliminary remedies, a 10 μL solution that had undergone the above preliminary remedies were added to 840 μL Tris-acetate buffer (40 mmol/L, pH 7.5, containing 2 mmol/L MgCl2, may be referred to as TE buffer) containing or not containing 20 mmol/L KCl. Subsequently, a 100 μL enzyme solution (5 μg protein) diluted with the TE buffer was added. Incubation was performed for 30 minutes at 37° C. Thereafter, a 50 μL ATP solution (40 mmol/L) which was dissolved in TE buffer not containing KCl was added to initiate enzyme reaction (total volume: 1 mL, ATP final concentration: 2 mmol/L). Incubation was performed for 30 minutes at 37° C. Subsequently, ice-cold 12% trichloroacetic acid (2 mL) was added, to thereby stop the enzyme reaction. A molybdenum reagent (1 mL, 3.75% ammonium molybdate/1.5 mol/L sulfuric acid) and butyl acetate (5 mL) were added, followed by mixing under vigorous shaking for 5 minutes. The absorption of the butyl acetate layer was measured at 310 nm. A standard curve was determined on the basis of absorption obtained through the similar procedure by use of KH2PO4 at different concentrations dissolved in 8% TCA solution, and inorganic phosphate content was calculated. Samples to be measured were prepared in duplicate. The measurements were averaged, and residual activity was obtained from the difference between the inorganic phosphate content as determined in a sample containing KCl and that as determined in a sample not containing KCl. Percentage inhibition activity was calculated with respect to the activity obtained from a control sample (DMSO), which was considered 100%. As the inhibitory potency of each test compound, IC50 values were computed and shown. All the test compounds were dissolved in dimethyl sulfoxide immediately before use.

T1 sequence (P19156 2-1034 limits assumed): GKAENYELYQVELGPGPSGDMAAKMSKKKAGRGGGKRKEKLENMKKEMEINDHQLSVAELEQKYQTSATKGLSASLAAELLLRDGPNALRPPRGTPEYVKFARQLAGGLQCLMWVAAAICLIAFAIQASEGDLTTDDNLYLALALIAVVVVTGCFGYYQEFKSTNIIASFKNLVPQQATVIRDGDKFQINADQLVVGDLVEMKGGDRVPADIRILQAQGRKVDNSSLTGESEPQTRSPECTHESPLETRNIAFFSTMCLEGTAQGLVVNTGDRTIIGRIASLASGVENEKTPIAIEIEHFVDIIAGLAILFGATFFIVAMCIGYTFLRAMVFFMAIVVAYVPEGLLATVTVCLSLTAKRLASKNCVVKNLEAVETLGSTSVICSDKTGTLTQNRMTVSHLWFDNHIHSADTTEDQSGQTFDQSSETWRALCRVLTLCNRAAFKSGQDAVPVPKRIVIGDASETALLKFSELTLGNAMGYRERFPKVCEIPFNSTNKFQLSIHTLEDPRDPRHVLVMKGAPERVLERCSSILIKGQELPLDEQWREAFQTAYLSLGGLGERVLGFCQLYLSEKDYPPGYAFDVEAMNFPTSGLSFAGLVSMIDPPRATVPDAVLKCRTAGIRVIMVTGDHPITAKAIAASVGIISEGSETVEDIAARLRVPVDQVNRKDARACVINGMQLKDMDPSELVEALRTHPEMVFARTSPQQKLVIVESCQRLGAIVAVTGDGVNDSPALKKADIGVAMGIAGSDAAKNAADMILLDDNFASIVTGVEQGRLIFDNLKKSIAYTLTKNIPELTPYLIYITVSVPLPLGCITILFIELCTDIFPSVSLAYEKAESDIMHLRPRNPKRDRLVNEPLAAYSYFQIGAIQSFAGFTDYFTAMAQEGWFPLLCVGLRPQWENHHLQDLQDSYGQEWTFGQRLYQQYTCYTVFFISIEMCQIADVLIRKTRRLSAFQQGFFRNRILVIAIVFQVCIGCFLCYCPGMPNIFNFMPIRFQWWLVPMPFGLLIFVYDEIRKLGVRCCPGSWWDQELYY
T1 sequence (P18434 whole entry partner): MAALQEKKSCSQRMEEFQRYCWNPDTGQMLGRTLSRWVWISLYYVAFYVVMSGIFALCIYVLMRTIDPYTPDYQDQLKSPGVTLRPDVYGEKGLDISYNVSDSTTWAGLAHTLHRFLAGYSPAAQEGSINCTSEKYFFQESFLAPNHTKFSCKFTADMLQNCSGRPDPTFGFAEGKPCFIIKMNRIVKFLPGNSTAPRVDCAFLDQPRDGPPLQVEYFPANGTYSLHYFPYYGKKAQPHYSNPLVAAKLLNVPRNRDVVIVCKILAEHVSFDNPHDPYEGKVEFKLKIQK

IC50	SMILES
1.61 µmol/L	Cc1c(OCC(F)(F)F)ccnc1C[S+]([O-])c1nc2ccccc2[nH]1 (stereo not drawn) [lansoprazole, reference compound]
7.37 µmol/L	[O-][S+](Cc1cc(OCCOCC(F)(F)F)ccn1)c1nc2ccccc2[nH]1 (single isomer, unassigned; (-)) [Example 13(3), (−)-2-{4-[2-(2,2,2-trifluoroethoxy)ethoxy]pyridin-2-yl-methanesulfinyl}-1H-benzimidazole]
4.05 µmol/L	COc1c(OCCOCC(F)(F)F)ccnc1C[S+]([O-])c1nc2ccccc2[nH]1 (single isomer, unassigned; (+)) [Example 3(2), (+)-2-{3-methoxy-4-[2-(2,2,2-trifluoroethoxy)ethoxy]pyridin-2-yl-methylsulfinyl}-1H-benzimidazole]
2.06 µmol/L	COc1ccc2nc([S@@+]([O-])Cc3ncc(C)c(OC)c3C)[nH]c2c1 [esomeprazole, reference compound]
3.37 µmol/L	COc1c(OCCOCC(F)(F)F)ccnc1C[S+]([O-])c1nc2ccccc2[nH]1 (stereo not drawn) [Example 2(2), 2-{3-methoxy-4-[2-(2,2,2-trifluoroethoxy)ethoxy]pyridin-2-yl-methylsulfinyl}-1H-benzimidazole]
1.01 µmol/L	COc1ccc2[nH]c([S+]([O-])Cc3ncc(C)c(OC)c3C)nc2c1 (stereo not drawn) [omeprazole, reference compound]
5.46 µmol/L	COc1ccnc(C[S+]([O-])c2nc3ccc(OC(F)F)cc3[nH]2)c1OC (stereo not drawn) [pantoprazole, reference compound]
1.61 µmol/L	COCCCOc1ccnc(C[S+]([O-])c2nc3ccccc3[nH]2)c1C (stereo not drawn) [rabeprazole, reference compound]

SMILES	IC50
[O-][S+](Cc1cc(OCCCC(F)(F)F)ccn1)c1nc2ccccc2[nH]1 (single isomer, unassigned; (-)) [Example 10(2), (−)-2-[4-(4,4,4-trifluorobutoxy)pyridin-2-yl-methanesulfinyl]-1H-benzimidazole]	3.03 µmol/L
COc1c(OCCCC(F)(F)F)ccnc1C[S+]([O-])c1nc2ccccc2[nH]1 (single isomer, unassigned; (-)) [Example 6(1), (−)-2-[3-methoxy-4-(4,4,4-trifluorobutoxy)pyridin-2-yl-methanesulfinyl]-1H-benzimidazole]	2.5 µmol/L
COc1c(OCCCC(F)(F)F)ccnc1C[S+]([O-])c1nc2ccccc2[nH]1 (stereo not drawn) [Example 1(2), 2-[3-methoxy-4-(4,4,4-trifluorobutoxy)pyridin-2-yl-methylsulfinyl]-1H-benzimidazole]	4.16 µmol/L
[O-][S+](Cc1cc(OCCCC(F)(F)F)ccn1)c1nc2ccccc2[nH]1 (stereo not drawn) [Example 9(3), 2-[4-(4,4,4-trifluorobutoxy)pyridin-2-yl-methanesulfinyl]-1H-benzimidazole]	3.56 µmol/L

— patent publication US6884810B2, “Benzimidazole derivatives” (Zeria Pharmaceutical Co., Ltd., priority 2001, dated 2005)
